Results reported in patent US20050025769A1, “Method of suppressing ongoing acute allograft rejection” (Fujisawa Pharmaceutical Company, Ltd., priority 1999, published 2005).

Columns and labels:
[1] = tested on: heart allografts (BN to LEW); experiment: Rat heart transplantation, primary therapy to prevent acute allograft rejection (drug day 0 to day 10); type: in vivo; settings: for median survival time (MST) of heart allografts: day 0 to day 10 after transplantation, allograft control 6 days
Source text: (§1) Inbred male Lewis rats (LEW) (RT1^1), weighing 200-250 g, were used as heart transplantation recipients. Inbred male LEW and inbred male Brown Norway (BN) (RT1^a), weighing 150-200 g, were used as isograft and allograft donor rats, respectively. […] Rejection of heart grafts was defined as the complete cessation of impulse and was confirmed visually after laparatomy. […] Control isograft and allograft recipients (5 rats each) received no immunosuppressant drugs after transplantation.

[2] = tested on: heart allografts, ongoing graft rejection; experiment: Rescue of ongoing heart allograft rejection (drug from day 5 for 10 days); type: in vivo, rat; settings: 3.2 mg/kg/day on days 5-14 post-transplantation
Source text: as §1
Therefore, drug administration was halted from day 0-day 4 after heart transplantation in order to initiate the transplantation process.

[3] = tested on: renal allografts (BN to LEW); experiment: Rescue of ongoing renal allograft rejection (drug from day 2 or day 4 for 13 days); type: in vivo, rat; settings: untreated allograft controls rejected at day 8
Protocol: Male LEW rats weighing 250-350 g and male BN rats weighing 150-250 g were kept under specific pathogen-free conditions in the animal facility at Fujisawa Pharmaceutical Co., Ltd., Osaka, Japan. […] The donor ureter was directly implanted into the recipient bladder over a fine polyethylene internal stent. All recipients were bilaterally nephrectomized at the time of transplantation. The graft ischemic time was approximately 30 minutes. Survival of the kidney transplant was measured as time of rat survival. Graft rejection was confirmed by histological examination of kidney tissue from recipients with the observation of interstitial hemorrhage, tubular necrosis, venous endotheliatitis and diffuse lymphoplasmacytic infiltration indicating graft rejection. […] Control isograft and allograft recipients received either distilled water, olive oil, or placebo after transplantation.

[4] = tested on: CD4+, CD8+, NKR-P1A, and ED2 positive cells; experiment: Immunohistological examination of cell infiltration into heart allograft tissue; type: in vivo, rat; settings: CsA 10 mg/kg/day, tacrolimus 3.2 mg/kg/day orally from day 5
Source text: The presence of CD4+, CD8+, NKR-P1A, and ED2 positive cells was examined on day 5, 7 and 10 after transplantation by immunohistological examination of graft tissue immunostained with specific antibodies to various immune cell populations. For immunohistology, 4 μm frozen sections of heart tissue were cut, fixed with acetone and exposed to monoclonal antibodies (Pharmingen, San Diego, Calif.) against markers for CD4+ (helper T cells), CD8^+ (cytotoxic T cells), NKR-P1A (natural killer cells), and ED2 (macrophage cells) positive cells. Then the sections were incubated with peroxidase-conjugated anti-mouse IgG antibodies. The bound peroxidase was detected using 3-amino-9-ethylcarbazole. The results were scored quantitatively. In each tissue section, three random representative fields were counted by visual microscope (×40) to determine the average cell number per tissue.

[5] = tested on: IL10 mRNA; experiment: RT-PCR for IL10 mRNA in heart graft tissues; type: in vivo, rat; settings: days 7 and 10; CsA 10 mg/kg/day, tacrolimus 3.2 mg/kg/day from day 5
Protocol: At day 5, 7 and 10 after transplantation, total RNA was extracted from heart graft tissues and tested by reverse transcriptase-polymerase chain reaction (RT-PCR) for cytokine mRNAs. Total RNA was extracted from transplanted heart tissue by TRIZOL (GIBCO BRL, Gaithersburg, Md.). RT-PCR was performed by reverse transcribing total RNA into cDNA using random hexamers (GIBCO BRL, Gaithersburg, Md.). The reverse-transcribed material was added to the PCR mixture with sense and anti-sense primers of IFNγ, IL2, IL4, IL10, IL1β, IL6, TNFα, TGFβ, Granzyme, Perforin or G3PDH and Taq DNA polymerase (Boehringer Mann heim GmbH, Mannheim, Germany). Amplification was performed with optimized cycles for each cytokine or G3PDH by ThermalCycler (Perkin-Elmer, Branchburg, N.J.). PCR product was applied to 2.3% agarose gel, resolved by electrophoresis, and visualized by ethidium bromide staining. The intensity of the gene-specific bands was obtained by the Gel Doc 1000 documentation system (BIO-RAD Laboratories, Hercules, Calif.). G3PDH mRNA was amplified as an internal control for RT-PCR.

[6] = tested on: IL2 and IL4 protein; experiment: ELISA assay of IL2 and IL4 proteins in serum peripheral lymphocytes of heart allograft recipients; type: in vivo, rat; settings: day 7 post-transplantation; optimal doses from day 5
Protocol: (§2) The transplantation method described in Example 5 was used. […] The levels of IL2, IL4 and IL10 proteins in serum peripheral lymphocytes were measured at day 7 post-transplantation by ELISA assay.

[7] = tested on: IL10 protein; experiment: ELISA assay of IL10 protein in serum peripheral lymphocytes of heart allograft recipients; type: in vivo, rat; settings: day 7 post-transplantation, compared with the allograft control; optimal doses from day 5
Protocol: as §2

[8] = tested on: T-cell-dependent antibody production, graft vs. host reactivity, delayed-type sensitivity reactions; settings: suppressing T-cell-dependent antibody production; cited from earlier work
[9] = tested on: liver transplantation; settings: clinical organ transplantation, estimated; cited from earlier work
[10] = tested on: allograft survival; settings: optimal doses administered several days after transplantation, after allograft rejection has begun; cited from earlier work

C=CC[C@@H]1/C=C(\C)C[C@H](C)C[C@H](OC)[C@H]2O[C@@](O)(C(=O)C(=O)N3CCCC[C@H]3C(=O)O[C@H](/C(C)=C/[C@@H]3CC[C@@H](O)[C@H](OC)C3)[C@H](C)[C@@H](O)CC1=O)[C@H](C)C[C@@H]2OC [tacrolimus, Tacrolimus]
median survival time (MST) of heart allografts ([1]; 1.0 mg/kg/day orally): 12 days
median survival time (MST) of heart allografts ([1]; 3.2 mg/kg/day orally): 19 days
median survival time (MST) of heart allografts ([1]; 10 mg/kg/day orally): 21 days
optimal dose ([1]; primary therapy, oral, day 0 to day 10, based on MST): 3.2 mg/kg/day
extension of the survival of the graft ([2]; versus allograft control): about 13 days
MST of heart allografts ([2]; allograft control 6 days): 19 days
recipient rats that survived more than 50 days ([3]; 3.2 mg/kg/day from day 2-14 after grafting): all of 5
recipient rats that survived more than 50 days ([3]; 3.2 mg/kg/day from day 4-16 after grafting): 3 of 5
suppression of all of the cell infiltration into the local graft tissues ([4]; day 7): no significant suppression
blocking CD8+ and NKR-P1A cell infiltration ([4]; day 10): significantly blocked
blocking the CD4+ and ED2 cell filtration ([4]; day 10): partially blocking
suppression of IL10 mRNA expression [5]: more than CsA
suppression of the expression of IL2 and IL4 protein [6]: equally
suppression of IL10 protein expression [7]: 73%
potency relative to CsA in vivo [8]: 10 times
potency relative to CsA in liver transplantation [9]: three to ten orders of magnitude more potent
effect on allograft survival [10]: significantly increase allograft survival
